According to patent US6077872A (priority 1998, dated 2000):
Where two headings read alike, the source gives them in different places.

Legend:
in vivo = conditions: rat; for AUC / Cmax / Tmax / half-life: in vivo, po, 200 mg/kg; for enhancement of serum Ca level: 200 mg calcium/kg oral
Text: (2) apparatus: Model WFX-1B Spectrophotometer of Atomic Absorption was produced by The Second Optical Apparatus Factory of Beijing, 83114; P-E 3030 Spectrophotometer of Atomic Absorption was produced by Perkin-Elmer Corp.,USA;DT-100 Single-Pan Balance (1/10^4) was produced by Beijing Optical Apparatus Factory; TJ-6 Centrifuge was produced by Beckman, USA; Model MVS-1 Vortex Mixer was produced by Beijing Beide Scientific Apparatus and Materials Co. Ltd.
Twelve hours after the animals had been fasted, 0.5 mL plasma was sampled by excising eyeballs. The plasma was established as the blank group. Then rats were administered agents once in an amount of 20 mL/kg body weight by pouring into the stomach. 0.5 mL plasma was sampled by taking from eyeballs 0.25,0.5,1,1.5,2,3,4,6,8,12 and 16 hours later after the administration. […] The concentration of calcium was measured by a Model WFX-1B Spectrophotometer of Atomic Absorption.

preschool children = conditions: for bone mineral density: before test 0.379 (threonate), 0.369 (carbonate)
Experimental: Seventy 3-6 years old healthy children whose bone mineral density were medium-lower at a central kindergarten in the suburban county of Beijing were selected as subjects, wherein there are 13 boys and 57 girls. All were healthy children who didn't have any metabolic diseases, liver or kidney diseases, bone wounds and abnormal diseases.
Double blind method was employed during the observation. Every person was administered calcium preparation or placebo twice a day in a dosage of 1 bag each time. […] Group IV, established as blank-control group, was administered placebo which didn't contain calcium. All the above oral preparations were provided by Beijing Juneng Asian-Pacific Life Science Research Center.
(1) Bone mineral density was measured before the test and 1.5 months and 3 months later after the administration of Ca supplements.
The bone mineral density of radius in non-preferred hand was measured at the 1/3 point near the farther-end by a Model BMD400 Single-Photon absorptiometry produced conjointly by Institute of Atomic Energy, Ministry of Nuclear Industry, China and Institute of Broadcasting, Beijing, to obtain mean mineral bone density (BMD, g/cm^2). Each point was scanned twice with a scanning speed of 0.5 mm/sec.
All data was analyzed with a SAS statistical software package.

rickets-babies [1] = conditions: for craniomalacia, babies with symptom after the beginning of test: before test 3 (threonate), 4 (carbonate); for pillow-bald, babies with symptom after the beginning of test: before test 9 (threonate), 9 (carbonate); for night-sweat, babies with symptom after the beginning of test: before test 12 (threonate), 13 (carbonate)
Experimental: Fourty rickets-babies at the age of 3-10 months were randomly divided into 2 groups of 20 babies each. […] Test group II, namely the calcium carbonate group, were administered orally calcium carbonate twice a day in a dosage of one bag each time. Each bag of the two kind of calcium preparations contained the same amount of element calcium, namely 150 mg element calcium.
(1) Clinic symptoms mainly included the normal symptoms of rickets-babies such as night-sweat, pillow-bald, craniomalacia, etc.

rickets-babies [2] = system: rickets-babies
Experimental: Fourty rickets-babies at the age of 3-10 months were randomly divided into 2 groups of 20 babies each. […] Test group II, namely the calcium carbonate group, were administered orally calcium carbonate twice a day in a dosage of one bag each time.
(2) Biochemical examinations of blood. Venous blood of rickets-baby was sampled before and after the beginning of test and serum Ca, P and AKP level were measured and the product of [Ca]×[P] was calculated.
(3) Data processing: All data was statistically analyzed using the method of direct calculation of probability, grouping t-test and pairing t-test.
Considering the difficulty in sampling blood from rickets-babies during the test operation, blood sampling was not performed at the second week after the beginning of the test. Blood sampling was only performed before the test and at the fourth week after the beginning of the test.

osteoporosis = conditions: oral administration; Recker et al 1977; cited from earlier work
rickets-mice [3] = experiment: Preventing rickets in younger mice: serum Ca, AKP, P; type: in vivo, mice of Kunming species; conditions: 300 mg calcium element, 60 days
Experimental: (§1) The mice were bred for 60 days under conditions of avoiding light around-the-clock, at a temperature of 20-25° C. and a relative humility of 40-60% while the normal-control group mice were fed ordinary diet and water and were placed in non-dark room.
(§2) The low-calcium diet used in this test was the same as that in Test II but VD in the vitamin mixture was replaced by glucose.
(§3) Some weanling mice were placed in dark room and fed VD -deficient low-calcium diet and drunk de-ionized water for 60 days, thus a ricket model of baby mice was prepared. While other weanling mice were placed in non-dark room and fed ordinary diet and drunk tap water for 60 days, these mice were established as normal-control group.

rickets-mice [4] = experiment: Preventing rickets in younger mice: tibia strength (three-point bending); type: in vivo, mice of Kunming species
Experimental: as §1, §2, §3

rickets-mice [5] = experiment: Preventing rickets in younger mice: body weight, dry weight, ash weight and total calcium content of femur; type: in vivo, mice of Kunming species; conditions: 300 mg calcium element
Experimental: as §1, §2, §3

[6] = 2 bags/day of 150 mg element calcium, 1.5 months
[7] = after four weeks of Ca-supplementing

CC(=O)O [calcium acetate] showed an AUC (in vivo) of 28200 ng·h/mL, a Cmax (in vivo) of 24900 ng/mL and a Tmax (in vivo) of 36.6 min.

With O=C(O)O [calcium carbonate] the bone mineral density (preschool children; 2 bags/day of 150 mg element calcium, 1.5 month) was 0.385 ± 0.028 g/cm^2, the “extent of BMDs' increase” value (preschool children; [6]) was 4.37% and the “percentage of children whose BMDs reached the normal range” value (preschool children; [6]) was 0%. For the same compound, the bone mineral density (preschool children; 2 bags/day of 150 mg element calcium, 3 month) was 0.412 ± 0.020 g/cm^2, the “extent of BMDs' increase” value (preschool children; 2 bags/day of 150 mg element calcium, 3 months) was 11.65% and the “BMD comparison between groups (in words)” value (preschool children; in vivo) was “markedly higher than those of the blank-control group only in 3 months”. For the same compound, the total symptom improvement (rickets-babies [1]; four weeks) was 57.6%, the “craniomalacia, babies with symptom after the beginning of test” value (rickets-babies [1]; four weeks) was 3 and the “pillow-bald, babies with symptom after the beginning of test” value (rickets-babies [1]; four weeks) was 5. For the same compound, the “night-sweat, babies with symptom after the beginning of test” value (rickets-babies [1]; four weeks) was 3, the total symptom improvement (rickets-babies [1]; two weeks) was 11.5% and the “rickets-babies free of symptoms” value (rickets-babies [1]; two weeks of administration (concluding text)) was 50%. For the same compound, the “craniomalacia, babies with symptom after the beginning of test” value (rickets-babies [1]; two weeks) was 4, the “pillow-bald, babies with symptom after the beginning of test” value (rickets-babies [1]; two weeks) was 9 and the “night-sweat, babies with symptom after the beginning of test” value (rickets-babies [1]; two weeks) was 10. For the same compound, the “percentage of babies whose AKP reached the normal range” value (rickets-babies [2]; [7]) was 30%, the “percentage of babies whose [Ca] × [P] reached the normal range” value (rickets-babies [2]; [7]) was 70% and the “percentage of babies whose serum P reached the normal range” value (rickets-babies [2]; [7]) was 60%. For the same compound, the “serum Ca change (in words)” value (rickets-babies [2]; before and after the test, P>0.05) was “no significant variation”, the “serum P” value (rickets-babies [2]; four weeks after, before 3.19 ± 0.25 (threonate), 3.12 ± 0.20 (carbonate)) was 3.90 ± 0.52 and the “serum Ca” value (rickets-babies [2]; four weeks after, before 10.49 ± 0.39 (threonate), 10.51 ± 0.47 (carbonate)) was 10.55 ± 0.42. For the same compound, the “[Ca] × [P]” value (rickets-babies [2]; four weeks after, before 33.4 ± 2.47 (threonate), 33.83 ± 2.17 (carbonate)) was 43.19 ± 5.22, the AKP (rickets-babies [2]; four weeks after, before 235.95 ± 7.89 (threonate), 235.25 ± 7.37 (carbonate)) was 225.25 ± 22.93 and the “enhancement of serum Ca level” value (in vivo; 0.25 hrs) was 11.1 µg/mL. For the same compound, the “enhancement of serum Ca level” value (in vivo; 0.5 hrs) was 24.7 µg/mL, the “enhancement of serum Ca level” value (in vivo; 1 hrs) was 21.4 µg/mL and the “enhancement of serum Ca level” value (in vivo; 1.5 hrs) was 17.1 µg/mL. For the same compound, the “enhancement of serum Ca level” value (in vivo; 2 hrs) was 13.2 µg/mL, the “enhancement of serum Ca level” value (in vivo; 3 hrs) was 10.9 µg/mL and the “enhancement of serum Ca level” value (in vivo; 4 hrs) was 5.7 µg/mL. The “enhancement of serum Ca level” value (in vivo; 6 hrs) was 0.2 µg/mL, the “enhancement of serum Ca level” value (in vivo; 8 hrs) was -1.4 µg/mL and the AUC (in vivo) was 40400 ng·h/mL. The Cmax (in vivo) was 31100 ng/mL, the Tmax (in vivo) was 39.6 min and the half-life (in vivo) was 20.4 min. The “effectiveness for preventing osteoporosis” value (osteoporosis) was “not effective for preventing osteoporosis”.

With O=C(O)[C@H](O)[C@@H](O)[C@H](O)[C@H](O)CO [calcium gluconate, reference compound] the “serum Ca” value (rickets-mice [3]; model 1.55 ± 0.42) was 2.37 ± 0.97 mmol/L, the “serum P” value (rickets-mice [3]; model 2.23 ± 0.52) was 1.71 ± 0.45 mmol/L and the “serum AKP (in Bessey-Loury unit)” value (rickets-mice [3]; model 101 ± 34) was 46.6 ± 13 U/L. The “breaking force (tibia)” value (rickets-mice [4]; 300 mg calcium element, model 1.12 ± 0.37) was 1.54 ± 0.35 kg, the “breaking force of tibia (in words)” value (rickets-mice [4]; mouse, in vivo) was “significantly higher than those for the model group and were comparable with those for the normal-control group” and the “dry weight of femur” value (rickets-mice [5]; model 0.099 ± 0.014) was 0.122 ± 0.019 g. It also gave a total calcium content (rickets-mice [5]; model 24.81 ± 4.36) of 30.23 ± 5.23 mg, an ash weight (rickets-mice [5]; model 46.62 ± 9.38) of 70.76 ± 10.18 mg and an AUC (in vivo) of 138000 ng·h/mL. The Cmax (in vivo) was 32100 ng/mL, the Tmax (in vivo) was 26.4 min and the half-life (in vivo) was 160 min.
